Measured values published in PMC12990037, “Discovery of Two Structurally Distinct Classes of Inhibitors Targeting the Nuclease MUS81 and Enhancing Efficacy of Chemotherapy in Cancer Cells” (Journal of Medicinal Chemistry, 2026).

What was measured:
Assay type in all cases: cell-based
U2OS cells [1] = assay: Annexin V apoptotic assay; details: 3 days
Method: Given these promising findings, we further investigated the specificity of MU262 and MU876 and potential short-term cytotoxicity. To mirror the treatment duration used in BIR and HR assays, U2OS cells were exposed to the inhibitors or siRNA for 3 days.
U2OS WT cells (300,000) were seeded in a 6-well plate, a subset of them was treated with either control siRNA or siRNA targeting MUS81. After adhesion, cells were treated with the respective inhibitors for 72 h during which CPT (100 μM, Sigma-Aldrich) was added for the last 2 h. Cells were harvested, washed in ice-cold PBS, and collected by centrifugation at 500g for 5 min. Cells were simultaneously stained with FITC-labeled annexin V antibody (556419, Becton Dickinson) and PI (5 μL) at room temperature for 15 min, protected from light. Stained cells were analyzed using a BD FACSVerse flow cytometer (Becton Dickinson) and FlowJo software (BD Life Sciences). At least 20,000 cells were used for each measurement, and experiments were performed in duplicates.

U2OS cells [2] = assay: Colony formation assay (CFA); details: 10–12 days
Method: (§1) 6 MUS81 inhibition induces persistent DNA damage leading to reduced cell survival. (A) U2OS cells were treated with DMSO, cisplatin as a positive control, control or MUS81-targeting siRNA, MU262, MU876, and their negative control counterparts at the indicated concentrations for 72 h. Representative images show staining of a DNA damage marker γH2AX in green with counterstaining of DAPI in blue. The concentration of all inhibitors shown in (A) is 2.5 μM. (B) DNA damage was assessed by quantifying γH2AX foci per nucleus from (A) using CellProfiller software. The graph represents percentage (%) of cells with ≥20 γH2AX foci per nucleus across different concentrations of inhibitors. n = 3; error bars represent s.d. (C) Indicated number of U2OS cells was transfected with a nontargeting siRNA (siCon) or MUS81-targeting siRNA (siMUS81) seeded for a CFA. […] (D) Quantification of (C), error bars represent s.d.; ****p <0.0001 (unpaired, two-tailed t-test). […] (F) Quantification of (E) using a nonlinear regression fitting model. n = 3. […] (H) Quantification of (G) using a nonlinear regression fitting model. n = 3.
Cells were trypsinized, plated at the desired density in 6-well plates for colony forming assay, and then incubated for 10 days. […] The colonies were then solubilized using 10% acetic acid solution, and absorbance was measured with a plate reader. […]

U2OS cells [3] = assay: γH2AX foci immunofluorescence, 72 h treatment
Method: as §1
U2OS, CAL51 WT, and CAL51 MUS81^–/– cells (10,000) were seeded in a 96-well plate 24 h before the treatment. […] The γH2AX foci were detected and quantified using CellProfiler (Broad Institute of MIT and Harvard). The analyzed data were plotted in RStudio software using R programming language.

HeLa cells = assay: Detection of TFEs by FISH on metaphase spreads; details: 48 h
Method: (§2) 5 Small-molecule inhibitors of MUS81 mimic the effect of siRNA-mediated MUS81 depletion in cells. (A) U2OS cells were treated with DMSO, MUS81-targeting siRNA, MU262, MU876, or their respective control analogues for 48 h. Cytochalasin B (1.25 μg/mL) was added 16 h before harvest to prevent cytokinesis. […] (B) Representative images corresponding to the selected conditions from (A). (C) U2OS and (D) HeLa cells were incubated with DMSO, the indicated inhibitors, and their respective control analogues for 48 h. Nocodazole (200 ng/mL) was added for 5 h prior to the end of treatment to arrest cells in mitosis. Mitotic cells were collected by shake-off, and telomere fragility events (TFEs) were quantified manually for each metaphase spread. At least 70 metaphase spreads were quantified per condition. n = 3; error bars represent s.d.; ***p < 0.001, ****p < 0.0001 (ordinary One-way ANOVA).
(§3) U2OS and HeLa cells were seeded in 10 cm dishes. The next day, the medium was changed, and compounds were added at desired concentrations. This process was repeated after 43 h except that compounds were added together with 200 ng/mL of nocodazole. Cells were collected 5 h later by shake-off and incubated in 75 mM KCl at 37 °C for 10 min. Chromosomes were fixed in ice-cold methanol/acetic acid (3:1) and spread on glass slides. Slides were then treated with 20 μg/mL RNase A (Sigma-Aldrich), in 1x PBS at 37 °C for 1 h, fixed in 4% formaldehyde (Sigma-Aldrich) in 1x PBS for 2 min, and treated with 70 μg/mL pepsin (Sigma-Aldrich) in 2 mM glycine, pH 2 (Sigma-Aldrich) at 37 °C for 5 min. Slides were fixed again with 4% formaldehyde in 1x PBS for 2 min, incubated subsequently in 70%, 90%, and 100% ethanol for 5 min each, and air-dried. A C-rich telomeric PNA probe (5′-AF568-OO-p4[…]-3′; Panagene) diluted in hybridization solution (10 mM Tris–HCl pH 7.2, 70% formamide, 0.5% blocking solution (Roche)) was applied onto the slides followed by incubation at 80 °C for 5 min and at room temperature for 2 h. Slides were washed twice in 10 mM Tris–HCl pH 7.2, 70% formamide, and 0.1% BSA and three times in 100 mM Tris–HCl pH 7.2, 150 mM NaCl, and 0.08% Tween-20 at room temperature for 10 min each. DNA was counterstained with 100 ng/mL DAPI (Sigma-Aldrich) in 1x PBS and slides were mounted in Vectashield (Vector Labs). Images were acquired with a Zeiss Cell Observer equipped with a cooled Axiocam 506 m camera and a 63X/1.4NA oil DIC M27 PlanApo N objective. Image analysis was performed using ImageJ and Photoshop software (Adobe Inc.).

ALT-positive U2OS cells = assay: Detection of TFEs by FISH on metaphase spreads; details: 48 h
Method: as §2, §3

| Compound | apoptosis (Annexin V staining) (U2OS cells [1]) | clonogenic cell survival (U2OS cells [2]) | γH2AX (DNA damage) foci (U2OS cells [3]) | telomere-free ends (TFEs) (HeLa cells) | telomere-free ends (TFEs) (ALT-positive U2OS cells) |
| --- | --- | --- | --- | --- | --- |
| Cc1cc(=O)[nH]c(-n2nc(-c3ccccc3)cc2NC(=O)c2cc(-c3ccccc3)on2)n1 [Compound 32, N-(1-(4-Methyl-6-oxo-1,6-dihydropyrimidin-2-yl)-3-phenyl-1H-pyrazol-5-yl)-5-phenylisoxazole-3-carboxamide] | no increase in apoptosis | significantly decreased cell survival | significantly increased the number of DNA damage foci in a concentration-dependent manner | but not in telomerase-positive and ALT-negative HeLa cells | significantly increased the presence of telomere-free ends (TFEs) |
| CCc1nn2c(O)c(-c3nc4ccccc4[nH]3)nnc2c1-c1ccc(F)cc1 [Compound 18, 3-(1H-Benzo[d]imidazole-2-yl)-7-ethyl-8-(4-fluorophenyl)pyrazolo[5,1-c][1,2,4]triazin-4-ol] | no increase in apoptosis | significantly decreased cell survival | significantly increased the number of DNA damage foci in a concentration-dependent manner | but not in telomerase-positive and ALT-negative HeLa cells | significantly increased the presence of telomere-free ends (TFEs) |
